Data reported in ChEMBL document CHEMBL6134907, “Synthesis of 5,9- and 5,8-Diaminoalkoxy Substituted Benzophenanthridinone Analogues as Tyrosyl-DNA Phosphodiesterase 1 Inhibitors and Their Radiosensitizing Activity” (J Med Chem, 2025).
Calls of active or inactive are those of the source. No cut-off for these calls is given here.

Experiments:
HCT-116 [1] = assay: Anti-tumor activity against human HCT-116 cells xenografted in BALB/c mouse assessed as tumor growth inhibition at 1 mg/kg, ip every day for 14 days; type: functional, organism-based; conditions: time 14.0 day
HCT-116 [2] = assay: Anti-tumor activity against human HCT-116 cells xenografted in BALB/c mouse assessed as tumor growth inhibition at 10 mg/kg, ip every day for 14 days; type: functional, organism-based; conditions: time 14.0 day
HCT-116 [3] = assay: Induction of 4GY ionizing radiation (IR) induced apoptosis in human HCT-116 cells assessed as early apoptotic cells at 5 uM measured after 24 hrs by FITC Annexin V/PI apoptosis detection assay (reference value: 17.50%); type: functional
HCT-116 [4] = assay: Induction of apoptosis in human HCT-116 cells assessed as induction of 4GY ionizing radiation (IR) induced cleaved PARP at 5 uM measured after 24 hrs by Western blot analysis; type: functional, cell-based
HCT-116 [5] = assay: Induction of 4GY ionizing radiation (IR) induced apoptosis in human HCT-116 cells assessed as early apoptotic cells at 10 uM measured after 24 hrs by FITC Annexin V/PI apoptosis detection assay (reference value: 17.50%); type: functional
[6] = Induction of 4GY ionizing radiation (IR) induced cell cycle arrest in human HCT-116 cells assessed as accumulation of cells at G0/G1 phase at 5 uM measured after 24 hrs by Propidium iodide (PI) staining based assay (reference value: 65.99%); type: functional
[7] = Toxicity in BALB/c mouse xenografted with human HCT-116 cells assessed as change in heart weight at 1 to 10 mg/kg, ip every day for 14 days; type: organism-based; conditions: in vivo, 336 h, dose 1-10 mg/kg, time 14 day
HCT-116 [8] = assay: Synergistic cytotoxicity against human HCT116 cells assessed as combination index at 5 uM incubated for 48 hrs in presence of 2GY ionizing radiation (IR); type: functional
[9] = Toxicity in BALB/c mouse xenografted with human HCT-116 cells assessed as change in spleen weight at 1 to 10 mg/kg, ip every day for 14 days radiated for every 2 days once; type: organism-based; conditions: in vivo, 336 h, dose 1-10 mg/kg, time 14 day
HCT-116 [10] = assay: Induction of ROS generation in human HCT-116 cells assessed as fold increase in intracellular ROS level at 5 uM under 4GY ionizing radiation (IR) measured after 20 mins by ELIASA analysis; type: functional
[11] = Induction of 4GY ionizing radiation (IR) induced cell cycle arrest in human HCT-116 cells assessed as accumulation of cells at G2/M phase at 5 uM measured after 24 hrs by Propidium iodide (PI) staining based assay (reference value: 20.51%); type: functional
HCT-116 [12] = assay: Induction of apoptosis in human HCT-116 cells assessed as induction of 4GY ionizing radiation (IR) induced cleaved Caspase-3 at 5 uM measured after 24 hrs by Western blot analysis; type: functional, cell-based
[13] = Toxicity in BALB/c mouse xenografted with human HCT-116 cells assessed as change in lung weight at 1 to 10 mg/kg, ip every day for 14 days; type: organism-based; conditions: in vivo, 336 h, dose 1-10 mg/kg, time 14 day
HCT-116 [14] = assay: Effect on ROS generation in human HCT-116 cells assessed as increase in intracellular ROS level at 5 to 10 uM measured after 20 mins by ELIASA analysis; type: functional, cell-based; conditions: dose 5-10 µM
HCT-116 [15] = assay: Effect on Lig4 expression in wild type human HCT-116 cells assessed as change in protein level at 5 to 10 uM radiated with 4 GY ionizing radiation (IR) measured after 24 hrs by Western blot analysis; type: functional, cell-based; conditions: dose 5-10 µM
HCT-116 [16] = assay: Reduction of XRCC4 expression in wild type human HCT-116 cells assessed as reduction in mRNA level at 5 to 10 uM radiated with 4 GY ionizing radiation (IR) measured after 24 hrs by qRT-PCR analysis; type: functional, cell-based; conditions: dose 5-10 µM
HCT-116 [17] = assay: Induction of cell cycle arrest in human HCT-116 cells assessed as accumulation of cells at S phase at 5 uM measured after 24 hrs by Propidium iodide (PI) staining based assay (reference value: 13.96%); type: functional
HCT-116 [18] = assay: Induction of apoptosis in human HCT-116 cells assessed as early apoptotic cells at 5 uM measured after 24 hrs by FITC Annexin V/PI apoptosis detection assay (reference value: 0.26%); type: functional
[19] = Cmax in male Sprague-Dawley rat at 1 mg/kg, iv measured up to 24 hrs by LCMS-MS analysis; type: ADME, organism-based; conditions: in vivo
HCT-116 [20] = assay: Synergistic cytotoxicity against human SgTDP1-HCT-116 cells (TDP1 knockout) assessed as combination index at 0.5 uM incubated for 48 hrs in presence of 2GY ionizing radiation; type: functional
HCT-116 [21] = assay: Induction of 4GY ionizing radiation (IR) induced apoptosis in human HCT-116 cells assessed as viable cells at 10 uM measured after 24 hrs by FITC Annexin V/PI apoptosis detection assay (reference value: 66.88%); type: functional; conditions: read-out: Activity
[22] = Induction of 4GY ionizing radiation (IR) induced cell cycle arrest in human HCT-116 cells assessed as accumulation of cells at G0/G1 phase at 10 uM measured after 24 hrs by Propidium iodide (PI) staining based assay (reference value: 65.99%); type: functional
HCT-116 [23] = assay: Induction of ROS generation in human HCT-116 cells assessed as fold increase in intracellular ROS level at 10 uM under […] ionizing radiation (IR) measured after 20 mins by ELIASA analysis; type: functional
[24] = AUC infinity in male Sprague-Dawley rat at 1 mg/kg, iv measured up to 24 hrs by LCMS-MS analysis; type: ADME, organism-based; conditions: in vivo
[25] = Half life in male Sprague-Dawley rat at 5 mg/kg, IG measured up to 24 hrs by LCMS-MS analysis; type: ADME, organism-based; conditions: in vivo, po
[26] = Cmax in male Sprague-Dawley rat at 5 mg/kg, IG measured up to 24 hrs by LCMS-MS analysis; type: ADME, organism-based; conditions: in vivo, po
HCT-116 [27] = assay: Induction of 4GY ionizing radiation (IR) induced apoptosis in human HCT-116 cells assessed as late apoptotic cells at 10 uM measured after 24 hrs by FITC Annexin V/PI apoptosis detection assay (reference value: 14.32%); type: functional
[28] = Induction of 4GY ionizing radiation (IR) induced cell cycle arrest in human HCT-116 cells assessed as accumulation of cells at S phase at 10 uM measured after 24 hrs by Propidium iodide (PI) staining based assay (reference value: 11.48%); type: functional
HCT-116 [29] = assay: Synergistic cytotoxicity against human HCT116 cells assessed as combination index at 1 uM incubated for 48 hrs in presence of 2GY ionizing radiation (IR); type: functional
HCT-116 [30] = assay: Induction of 4GY ionizing radiation (IR) induced apoptosis in human HCT-116 cells assessed as late apoptotic cells at 5 uM measured after 24 hrs by FITC Annexin V/PI apoptosis detection assay (reference value: 14.32%); type: functional
HCT-116 [31] = assay: Downregulation of cell cycle pathway in human HCT-116 cells at 5 uM measured after 24 hrs by KEGG analysis; type: functional, cell-based
[32] = target: Tyrosyl-DNA phosphodiesterase 1 (Homo sapiens, UniProt Q9NUW8); assay: Binding affinity to TDP1 in human HCT-116 cells assessed as increase in thermal stability by Cellular Thermal Shift Assay (CETSA); type: cell-based
Chain of Tyrosyl-DNA phosphodiesterase 1 (Q9NUW8 whole entry): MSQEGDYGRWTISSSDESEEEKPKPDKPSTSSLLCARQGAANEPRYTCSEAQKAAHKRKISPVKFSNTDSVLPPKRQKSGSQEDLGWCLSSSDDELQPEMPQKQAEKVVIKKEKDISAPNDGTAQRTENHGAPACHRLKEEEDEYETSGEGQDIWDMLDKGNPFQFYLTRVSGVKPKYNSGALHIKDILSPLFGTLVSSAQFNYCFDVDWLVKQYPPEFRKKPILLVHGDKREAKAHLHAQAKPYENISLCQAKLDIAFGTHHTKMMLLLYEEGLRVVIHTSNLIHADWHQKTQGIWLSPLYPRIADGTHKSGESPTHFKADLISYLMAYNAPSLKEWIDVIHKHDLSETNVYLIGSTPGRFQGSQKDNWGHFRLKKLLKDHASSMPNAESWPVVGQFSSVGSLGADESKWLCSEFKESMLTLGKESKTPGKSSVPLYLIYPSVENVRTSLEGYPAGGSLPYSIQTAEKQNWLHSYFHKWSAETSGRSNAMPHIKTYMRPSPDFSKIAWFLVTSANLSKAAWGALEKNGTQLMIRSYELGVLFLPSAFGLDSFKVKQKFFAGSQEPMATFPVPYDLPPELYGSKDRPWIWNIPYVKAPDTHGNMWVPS

HCT-116 [33] = assay: Induction of apoptosis in human HCT-116 cells assessed as late apoptotic cells at 5 uM measured after 24 hrs by FITC Annexin V/PI apoptosis detection assay (reference value: 0%); type: functional

Q: Which results are given for `COc1cc2c(=O)n(CCN(C)C)c3c4cc5c(cc4ccc3c2cc1OCCN1CCOCC1)OCO5`?
A: TGI (HCT-116 [1]): inactive; TGI (HCT-116 [2]): inactive; Activity (HCT-116 [3]): 19.39%; Activity (HCT-116 [4]): Active; Activity (HCT-116 [5]): 19.85%; Activity [6]: 44.18%; Activity [7]: Non-toxic; CI (HCT-116 [8]): <0.3; Activity [9]: Non-toxic; fold change (FC) (HCT-116 [10]): 1.7; Activity [11]: 43.13%; Activity (HCT-116 [12]): Active; Activity [13]: Non-toxic; Activity (HCT-116 [14]): inactive; Activity (HCT-116 [15]): inactive; Activity (HCT-116 [16]): Active; Activity (HCT-116 [17]): 10.9%; Activity (HCT-116 [18]): 14.89%; Cmax [19]: 221 ng/mL; CI (HCT-116 [20]): 0.94; viability at 10 µM (HCT-116 [21]): 55.5%; Activity [22]: 20.79%; fold change (FC) (HCT-116 [23]): 2.1; AUC(0-inf) [24]: 291 ng·h/mL; half-life [25]: 4.64 h; Cmax [26]: 70.3 ng/mL; Activity (HCT-116 [27]): 23.04%; Activity [28]: 12.88%; Activity (HCT-116 [29]): 28%; Activity (HCT-116 [30]): 18.62%; Activity (HCT-116 [31]): Active; Activity [32]: Active; Thermal Melting Curve Of Tdp1 Protein Shifted Left; Activity (HCT-116 [33]): 5.99%
